Assay: xn = mol fraction of the nth substance listed

O=P([O-])(O)O.[Na+] + O
viscosity [mPa·s]
Conditions	298.15 K	303.15 K	308.15 K	313.15 K
101 kPa, x1 = 0.0018	0.9216	0.8373	0.7482	–
101 kPa, x1 = 0.0054	0.9881	0.887	0.8017	–
101 kPa, x1 = 0.0089	1.077	0.9691	0.8669	–
101 kPa, x1 = 0.012	1.17	1.053	0.9301	–
101 kPa, x1 = 0.016	1.284	1.151	1.008	–
101.32 kPa, x1 = 0.1245	20.44	–	–	–
101.32 kPa, x1 = 0.1772	–	–	–	28.59

CCCCOCCOCCO + O=C1CCCN1
298.15 K, 101 kPa
Conditions	viscosity [mPa·s]
x1 = 0.0024	14.13
x1 = 0.0056	14.02
x1 = 0.0086	13.96
x1 = 0.012	13.86
x1 = 0.0205	13.67
x1 = 0.0421	13.08
x1 = 0.0638	12.61
x1 = 0.0865	12.19
x1 = 0.1132	11.69
x1 = 0.1508	11.11
x1 = 0.1869	10.55
x1 = 0.2192	10.19
x1 = 0.2979	9.265
x1 = 0.3786	8.558
x1 = 0.3996	8.385
x1 = 0.4122	8.298
x1 = 0.4764	7.823
x1 = 0.5469	7.347
x1 = 0.6024	7.035
x1 = 0.6618	6.715
x1 = 0.7147	6.434
x1 = 0.7823	6.121
x1 = 0.8345	5.879
x1 = 0.8792	5.707
x1 = 0.9066	5.597
x1 = 0.9407	5.469
x1 = 0.9748	5.264
x2 = 0.0063	5.156

Cc1cccc(C)c1 + CCOC(C)=O
viscosity [mPa·s], 101 kPa
Conditions	298.15 K	308.15 K
x2 = 0.048	0.568	0.515
x2 = 0.1498	0.541	0.492
x2 = 0.2498	0.518	0.472
x2 = 0.3493	0.498	0.454
x2 = 0.4469	0.481	0.439
x2 = 0.4972	0.473	0.432
x2 = 0.5494	0.466	0.425
x2 = 0.6495	0.454	0.414
x2 = 0.7511	0.444	0.404
x2 = 0.8509	0.436	0.396
x2 = 0.9461	0.43	0.39
